Source: US6184238A, “N-hydroxyurea derivative and pharmaceutical composition containing the same” (Nikken Chemicals Co., Ltd., priority 1996, dated 2001)
Read-outs that look alike come from different tables or passages of the source.

Key:
Thromboxane synthase = biological target: T1, Thromboxane synthase (Homo sapiens, UniProt P24557); test: Thromboxane synthase inhibitory activity (thromboxane B2 production, human platelet microsomes); format: biochemical; settings: prostaglandin H2 added, pH 7.5, read-out: TxSI IC50 (inhibition of thromboxane B2 production)
T1 construct: Human platelet microsomes were used; from tissue; host or cells: human platelet microsomes
T1 sequence (P24557 1-533): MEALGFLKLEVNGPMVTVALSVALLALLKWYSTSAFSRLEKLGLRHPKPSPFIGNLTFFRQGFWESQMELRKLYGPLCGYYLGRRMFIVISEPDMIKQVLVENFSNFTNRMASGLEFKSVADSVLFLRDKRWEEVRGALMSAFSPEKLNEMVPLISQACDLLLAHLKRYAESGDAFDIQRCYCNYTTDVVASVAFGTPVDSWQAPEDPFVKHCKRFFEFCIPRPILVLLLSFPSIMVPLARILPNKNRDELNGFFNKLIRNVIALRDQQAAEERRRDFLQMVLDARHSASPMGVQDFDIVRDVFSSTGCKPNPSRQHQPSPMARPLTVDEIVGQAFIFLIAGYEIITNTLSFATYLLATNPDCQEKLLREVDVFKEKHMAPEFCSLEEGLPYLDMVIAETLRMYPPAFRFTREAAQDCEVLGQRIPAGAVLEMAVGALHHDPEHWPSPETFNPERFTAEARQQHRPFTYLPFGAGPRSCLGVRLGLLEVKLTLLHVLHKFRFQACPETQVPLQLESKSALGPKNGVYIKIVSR
Description: (Test of Thromboxane synthase Inhibitory Activity)
Human platelet microsomes were used and a test performed using as an indicator the amount of production of the thromboxane A2 stable metabolite thromboxane B2. A buffer solution (20 mM tris-HCl buffer solution, 1 mM EDTA, pH 7.5) containing human platelet microsomes (50 μg protein/ ml) and the test compound (final concentration of 10^-6 M) was stirred, then incubated at 0° C. for 30 minutes, followed by adding prostaglandin H2 (100 ng/2 μl). This was made acidic to stop the reaction, then neutralized with 1M Tris-base, then centrifuged at 3000 rpm for 20 minutes. The amount of the thromboxane B2 in the supernatant was measured by the EIA method (Cayman Co. kit).
As the test compound, the compounds 1, 6, 10, 11, 18 to 21, 24 to 27, 35, 40, 41, 44, and 45 were used for the test.

Lipoxygenase = biological target: T2, Lipoxygenase (Rattus norvegicus, UniProt P12527); test: Lipoxygenase inhibitory activity (leukotriene B4 production, rat polymorphonuclear leukocytes); format: cell-based
T2 construct: Using rat polymorphonuclear leukocytes; endogenous in cells; host or cells: casein-elicited peritoneal polymorphonuclear leukocytes of male Wistar rats
T2 sequence (P12527 1-673): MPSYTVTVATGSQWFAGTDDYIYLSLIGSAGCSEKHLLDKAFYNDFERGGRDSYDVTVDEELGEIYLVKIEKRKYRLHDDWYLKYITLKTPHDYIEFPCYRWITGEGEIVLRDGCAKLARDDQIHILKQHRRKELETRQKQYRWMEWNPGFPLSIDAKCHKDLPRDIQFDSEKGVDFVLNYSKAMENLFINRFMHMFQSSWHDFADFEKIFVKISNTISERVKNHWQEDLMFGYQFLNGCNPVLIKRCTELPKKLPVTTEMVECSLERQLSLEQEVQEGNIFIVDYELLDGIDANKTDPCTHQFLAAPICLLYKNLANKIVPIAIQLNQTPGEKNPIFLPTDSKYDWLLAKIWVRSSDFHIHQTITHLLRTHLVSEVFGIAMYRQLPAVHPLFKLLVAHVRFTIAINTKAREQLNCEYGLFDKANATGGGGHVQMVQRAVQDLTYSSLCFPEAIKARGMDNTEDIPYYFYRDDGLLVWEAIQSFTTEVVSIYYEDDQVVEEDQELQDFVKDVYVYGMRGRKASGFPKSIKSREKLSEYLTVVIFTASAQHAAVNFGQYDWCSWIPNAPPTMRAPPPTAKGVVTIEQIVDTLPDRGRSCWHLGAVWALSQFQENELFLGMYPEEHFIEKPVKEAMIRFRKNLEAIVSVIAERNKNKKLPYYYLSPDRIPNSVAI
Description: (Test of Lipoxygenase Inhibitory Activity)
Using rat polymorphonuclear leukocytes, a test was conducted using as an indicator the amount of production of leukotriene B4. Wistar male rats (Japan Clea) were intraperitoneally administered with 12% sodium casein. After 16 hours, the peritoneal cavities were lavaged and the polymorphonuclear leukocytes were recovered. The polymorphonuclear leukocytes thus obtained were suspended in a phosphate buffer (137 mM NaCl, 3 mM KCl, 8 mM Na2 HPO4, 2 mM KH2 PO4) (2.5×10^5 cells/0.4 ml), then the test compound (final concentration 10^-5 M) was added and incubation performed for 10 minutes at 37° C. then a calcium solution (10 mM CaCl2, 0.86% NaCl) 0.1 ml was added and incubation performed for 5 minutes, then 1.25 μl of calcium ionophore (20 μm, A-23187) was added and the reaction started. Five minutes after the addition, 250 μl of methanol was added to stop the reaction. After the reaction was stopped, the result was centrifuged for 20 minutes (4° C., 3000 rpm), then the amount of leukotriene B4 in the supernatant was measured by the EIA method (Cayman Co. kit).
As the test compound, the same compounds as in Test Example 1 were used for the test.

Crj-ICR male mice = test: Acute toxicity test; format: in vivo, mouse; settings: intraperitoneal, dosages of up to 1000 mg/kg, 7 days observation
Description: Crj-ICR male mice (7 weeks old, five mice to a group) were used. The test compound (Compounds 9, 26, and 33) was suspended in 0.5% sodium carboxymethylcellulose and administered intraperitoneally at a ratio of 10 ml/kg. The survival of the animals was observed up until 7 days after administration.

[1] = tested on: Antigen-Induced Bronchoconstriction Model of Guinea Pig; test: Antigen-induced bronchoconstriction model of guinea pig (Konzett-Rossler method); format: in vivo; settings: Cavia porcellus, 1 h; guinea pigs sensitized by ovalbumin; oral; one hour after administration; read-out: Suppression of respiratory constriction (ED50)
Description: (Pharmacological Activity on Antigen-Induced Bronchoconstriction Model of Guinea Pig)
Guinea pigs sensitized by ovalbumin were used and orally administered with the test compound suspended in 5% gum arabic. The activity for inhibiting antigen-induced bronchoconstriction after one hour after administration was measured by the Konzett-Rossler method.
Each of the sensitized guinea pigs was anesthesized by 35 mg/kg pentobarbital, a cannula was inserted into the respiratory tract and connected to an artificial respirator, a cannula was inserted into the jugular vein, and treatment was performed by 5 mg/kg suxamethonium and […] mepyramine. Next, the guinea pig was inhaled a nebulized ovalbumin to cause bronchoconstriction and the activity in inhibiting bronchoconstriction was found from the ratio of the amount of overflow volume to the detector to the amount of air blown volume from the artificial respirator.
As the test compound, the Compounds 19, 26, and 33 were used. As the control, the thromboxane synthase inhibitor OKY-046 and the 5-lipoxygenaseinhibitor A-64077 were used.

[2] = rat polymorphonuclear leukocytes, calcium ionophore A-23187, 37° C., read-out: LTBI IC50 (inhibition of leukotriene B4 production)

Structure (SMILES) | IC50 (Thromboxane synthase) [µM] | IC50 (Lipoxygenase; [2]) [µM] | Deaths (acute toxicity) (Crj-ICR male mice) | ED50 [1] [mg/kg] | IC50 (Lipoxygenase) [µM]
NC(=O)N(O)CCCCCCCCCCCCn1c(-c2cccnc2)cc2ccccc21 [Compound 1, N-Hydroxy-N-[12-[1-[2-(3-pyridyl)indolyl]]dodecyl]urea] | 0.003 | 0.006 | – | – | –
NC(=O)N(O)CCCCCCCCn1c(-c2cccnc2)cc2ccccc21 [Compound 6, N-Hydroxy-N-[8-[1-[2-(3-pyridyl)indolyl]]octyl]urea] | 0.0007 | 0.01 | – | – | –
NC(=O)N(O)CCCCCCn1c(-c2cccnc2)c(Cl)c2cc(Cl)ccc21 [Compound 9, N-[6-[1-[3,5-dichloro-2-(3-pyridyl)indolyl]]hexyl]-N-hydroxyurea] | – | – | no deaths | – | –
Cc1c(-c2cccnc2)n(CCCCCCN(O)C(N)=O)c2ccc(Cl)cc12 [Compound 10, N-[6-[1-[5-Chloro-3-methyl-2-(3-pyridyl)indolyl]]hexyl]-N-hydroxyurea] | 0.0007 | 0.03 | – | – | –
NC(=O)N(O)CCCCCCCCCCn1c(-c2cccnc2)cc2ccccc21 [Compound 11, N-hydroxy-N-[10-[1-[2-(3-pyridyl)indolyl]]decyl]urea] | 0.0008 | 0.009 | – | – | –
NC(=O)N(O)CCCCCCn1cc(Cc2cccnc2)c2ccccc21 [Compound 18, N-Hydroxy-N-[6-[1-[3-(3-pyridylmethyl)indolyl]]hexyl]urea] | 0.3 | 0.1 | – | – | –
NC(=O)N(O)CCn1cc(-c2cccnc2)c2ccccc21 [Compound 19, N-Hydroxy-N-[2-[1-[3-(3-pyridyl)indolyl]]ethyl]urea] | 0.015 | 0.3 | – | 30 | –
Cc1c(-c2cccnc2)c2ccccc2n1CCN(O)C(N)=O [Compound 20, N-Hydroxy-N-[2-[1-[2-methyl-3-(3-pyridyl)indolyl]]ethyl]urea] | 0.005 | 1.5 | – | – | –
NC(=O)N(O)CCCCCCn1cc(-c2cccnc2)c2ccccc21 [Compound 21, N-Hydroxy-N-[6-[1-[3-(3-pyridyl)indolyl]]hexyl]urea] | 0.015 | 0.04 | – | – | –
Cn1c(-c2cccnc2)c(C=CCN(O)C(N)=O)c2ccccc21 [Compound 24, N-Hydroxy-N-[3-[3-[1-methyl-2-(3-pyridyl)indolyl]]-2-propenyl]urea] | 0.04 | 4 | – | – | –
NC(=O)N(O)CC=Cc1cn(Cc2cccnc2)c2ccccc12 [Compound 25, N-hydroxy-N-[3-[3-[1-(3-pyridylmethyl)indolyl]]-2-propenyl]urea] | 0.15 | 0.2 | – | – | –
NC(=O)N(O)Cc1cn(Cc2cccnc2)c2ccccc12 [Compound 26, N-Hydroxy-N-[3-[1-(3-pyridylmethyl)indolyl]methyl]urea] | 0.7 | – | – | 75 | 3
NC(=O)N(O)Cc1ccc(Cc2cn(Cc3cccnc3)c3ccccc23)cc1 [Compound 27, N-Hydroxy-N-[4-[3-[1-(3-pyridylmethyl)indolyl]]methylbenzyl]urea] | 0.07 | 0.1 | – | – | –
NC(=O)N(O)Cc1ccc2c(ccn2Cc2cccnc2)c1 [Compound 33, N-hydroxy-N-[5-[1-(3-pyridylmethyl)indolyl]methyl]urea] | – | – | – | 30 | –
Cc1c(-c2cccnc2)n(C)c2ccc(CN(O)C(N)=O)cc12 [Compound 35, N-[5-[1,3-Dimethyl-2-(3-pyridyl)indolyl]methyl]-N-hydroxyurea] | 0.04 | 2 | – | – | –
Cn1cc(-c2cccnc2)c2cc(CN(O)C(N)=O)ccc21 [Compound 40, N-Hydroxy-N-[5-[1-methyl-3-(3-pyridyl)indolyl]methyl]urea] | 0.03 | 0.7 | – | – | –
Cc1c(-c2cccnc2)n(C)c2ccc(C(C)N(O)C(N)=O)cc12 (stereo not shown) [Compound 41, N-[1-[5-[1,3-Dimethyl-2-(3-pyridyl)indolyl]]ethyl]-N-hydroxyurea] | 0.07 | 2 | – | – | –
Cc1c(-c2cccnc2)n(C)c2ccc(C#CC(C)N(O)C(N)=O)cc12 (stereo not shown) [Compound 44, N-[2-[4-[5-[1,3-dimethyl-2-(3-pyridyl)indolyl]]-3-butynyl]]-N-hydroxyurea] | 0.03 | 0.6 | – | – | –
CC(c1ccc2c(c1)c(-c1cccnc1)cn2C)N(O)C(N)=O (stereo not shown) [Compound 45, N-Hydroxy-N-[1-[5-[1-methyl-3-(3-pyridyl)indolyl]]ethyl]urea] | 0.06 | 2.5 | – | – | –
CC(c1cc2ccccc2s1)N(O)C(N)=O (stereo not shown) [Compound A-64077, reference compound] | – | – | – | 300 | –
O=C(O)/C=C/c1ccc(Cn2ccnc2)cc1 [OKY-046, reference compound] | – | – | – | 260 | –
